Measured values from publication PMC12736194, “1-Azinyl-1′-Alkenylferrocenes with Anticholinesterase, Antioxidant, and Antiaggregating Activities as Multifunctional Agents for Potential Treatment of Alzheimer’s Disease” (Pharmaceuticals, 2025).

Columns and labels:
[1] = Ferric reducing antioxidant power (FRAP) assay;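 on Exp. FRAP, TE: same experimental FRAP TE values reprinted in Table 4 beside calculated BDE and IP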; conditions: for Exp. FRAP, TE: Water, Table 4; for Ferric Reducing Antioxidant Power, TE: Trolox equivalents, acetate buffer pH 3.6, 1 h, 37 °C
[2] = ABTS radical cation scavenging activity assay;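 on Exp. ABTS, TEAC: same experimental ABTS TEAC values reprinted in Table 4 beside calculated BDE and IP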; conditions: for Exp. ABTS, TEAC: Ethanol, Table 4; for IC50: ABTS^•+ 100 μM; for IC50 / ABTS^•+-Scavenging Activity, TEAC: ethanol, 1 h; for ABTS^•+-Scavenging Activity, TEAC: Trolox equivalent antioxidant capacity, mean ± SEM, n = 3
[3] = tested on: porcine (Sus scrofa) liver CES (SsCES); experiment: Inhibition of SsCES (spectrophotometric, 4-NPA substrate); type: biochemical; conditions: mean ± SEM, n = 3; for Inhibition of SsCES, % inhibition at 20 μM: compound 20 μM, n.a. = not active
Text: (§1) In these experiments, human (Homo sapiens) erythrocyte AChE (HsAChE), equine (Equus caballus) serum BChE (EcBChE), and porcine (Sus scrofa) liver CES (SsCES) were used because of their ready availability, relatively low cost, and high sequence homology of EcBChE and SsCES to the corresponding human enzymes.
Although the dominant carboxylesterase in porcine liver is CES1 [64], the preparation sourced from Sigma-Aldrich is not a purified or recombinant CES1. Therefore, we have designated the preparation used in our experimental studies as SsCES. However, in computational molecular docking studies, it is necessary to choose a single defined protein as the docking target. Thus, the logical choice for our computational studies of CES was the most abundant and best characterized isoform found in porcine liver, which is SsCES1.
(§2) Enzymes, substrates, and reference compounds were sourced from Sigma-Aldrich (St. Louis, MO, USA). Enzyme activity was measured spectrophotometrically according to [91] using ATCh iodide, BTCh iodide, and 4-NPA as substrates for HsAChE, EcBChE, and SsCES, respectively. Experimental conditions included a K/Na-phosphate buffer (100 mM), at 25 °C, with pH 7.5 for AChE and BChE assays, and pH 8.0 for CES assays. Measurements were conducted on a BioRad Benchmark Plus microplate spectrophotometer (Hercules, CA, USA). Test compounds were dissolved in DMSO with a final solvent concentration of 2% (v/v) in the incubation mixture.

[4] = molecular target: T1, human β-amyloid (1–42) (HsAβ42) (Homo sapiens, UniProt P05067); experiment: Inhibition of HsAβ42 self-aggregation (thioflavin T fluorescence); type: biochemical; conditions: HsAβ42 50 µM, compound 100 µM, 24 h, 37 °C; n.a. = not active
T1 construct: purchased AnaSpec Inc
T1 sequence (P05067 672-713 limits assumed): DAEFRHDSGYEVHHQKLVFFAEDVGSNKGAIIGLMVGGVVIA
Method: The potential of compounds from all three groups (1a-e, 5a-e, 7a-d) to inhibit HsAβ42 self-aggregation was evaluated using a Thioflavin T (ThT) fluorescence assay.
Inhibition of HsAβ42 self-aggregation by test compounds was studied using the thioflavin T (ThT) fluorescence method with minor modifications as described in detail in [79]. Lyophilized HFIP-pretreated HsAβ42 (AnaSpec Inc., Fremont, CA, USA, 0.5 mg) was dissolved in DMSO to obtain a stable 500 μM solution. The samples of 50 μM HsAβ42 in 215 mM Na-phosphate buffer pH 8.0 were incubated for 24 h at 37 °C in the absence or presence of 100 μM test compounds. Myricetin in the same concentration was used as a reference. After incubation, 5 μM ThT in 50 mM glycine-NaOH buffer pH 8.5 was added, and the fluorescence was measured at 440 nm (exc.) and 485 nm (emis.) with a FLUOStar Optima microplate reader. Blanks consisted of 215 mM Na-phosphate buffer, pH 8.0, 20% (v/v) DMSO or test compounds, respectively. The inhibition (%) of HsAβ42 self-aggregation by the test compounds was calculated.

[5] = molecular target: T2, peripheral anionic site (PAS) of Electrophorus electricus AChE (EeAChE) (Electrophorus electricus, UniProt O42275); experiment: Propidium displacement from the EeAChE PAS (fluorescence); type: binding; conditions: compound concentration 20 µM; EeAChE 7 μM, propidium iodide 8 μM, Tris-HCl pH 8.0; n.a. = not active
T2 construct: purchased Sigma-Aldrich type VI-S
T2 sequence (O42275 24-633): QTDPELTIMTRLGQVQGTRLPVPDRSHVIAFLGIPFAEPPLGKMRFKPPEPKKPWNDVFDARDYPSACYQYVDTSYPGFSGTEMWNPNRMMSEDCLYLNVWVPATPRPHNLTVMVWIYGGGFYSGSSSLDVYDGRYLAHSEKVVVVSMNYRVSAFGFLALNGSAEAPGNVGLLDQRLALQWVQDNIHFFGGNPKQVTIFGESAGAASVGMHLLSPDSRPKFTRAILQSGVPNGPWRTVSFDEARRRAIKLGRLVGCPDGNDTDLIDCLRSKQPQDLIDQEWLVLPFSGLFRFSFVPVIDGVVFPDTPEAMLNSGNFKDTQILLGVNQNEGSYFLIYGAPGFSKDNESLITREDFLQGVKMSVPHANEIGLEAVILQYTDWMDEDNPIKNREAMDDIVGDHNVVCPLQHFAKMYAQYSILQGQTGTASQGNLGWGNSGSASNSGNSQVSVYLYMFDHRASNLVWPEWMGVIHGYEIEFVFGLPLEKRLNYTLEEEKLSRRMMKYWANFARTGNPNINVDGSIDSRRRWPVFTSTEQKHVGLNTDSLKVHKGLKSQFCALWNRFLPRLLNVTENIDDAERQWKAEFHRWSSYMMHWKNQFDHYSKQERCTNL
Method: A fluorescence-based assay assessed the ability of test compounds to competitively displace propidium iodide from AChE’s PAS [65, 93]. […] EeAChE (7 μM) was incubated with 20 μM test compounds in Tris-HCl buffer (pH 8.0) for 15 min, followed by addition of propidium iodide (8 μM) as described in detail in [95]. Fluorescence readings (530 nm excitation, 600 nm emission) were obtained using a FLUOStar Optima microplate reader (LabTech, Ortenberg, Germany). Displacement (%) was calculated.

[6] = molecular target: T3, equine (Equus caballus) serum BChE (EcBChE) (Equus caballus, UniProt P81908); experiment: Inhibition of EcBChE (spectrophotometric, BTCh iodide substrate); type: biochemical; conditions: mean ± SEM, n = 3; for Inhibition of EcBChE, % inhibition at 20 μM: compound 20 μM, n.a. = not active; for IC50: K/Na-phosphate buffer pH 7.5, 25 °C
T3 construct: equine (Equus caballus) serum BChE (EcBChE); purchased Sigma-Aldrich; host or cells: horse serum
T3 sequence (P81908 whole entry): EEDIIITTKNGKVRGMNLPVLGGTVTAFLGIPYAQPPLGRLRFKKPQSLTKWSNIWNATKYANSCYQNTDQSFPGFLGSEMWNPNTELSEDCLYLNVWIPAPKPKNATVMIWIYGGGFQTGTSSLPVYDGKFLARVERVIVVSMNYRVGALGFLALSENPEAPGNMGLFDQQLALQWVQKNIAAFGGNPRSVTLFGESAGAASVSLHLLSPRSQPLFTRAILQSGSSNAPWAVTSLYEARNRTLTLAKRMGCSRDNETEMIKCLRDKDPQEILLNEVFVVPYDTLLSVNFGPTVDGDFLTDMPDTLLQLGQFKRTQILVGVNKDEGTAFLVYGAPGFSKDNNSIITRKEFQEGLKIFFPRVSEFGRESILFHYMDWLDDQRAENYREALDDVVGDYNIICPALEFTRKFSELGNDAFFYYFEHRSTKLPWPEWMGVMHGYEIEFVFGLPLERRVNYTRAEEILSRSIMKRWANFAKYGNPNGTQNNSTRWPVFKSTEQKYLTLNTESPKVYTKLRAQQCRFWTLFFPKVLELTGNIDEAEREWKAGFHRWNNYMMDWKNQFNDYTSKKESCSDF
Method: as §1, §2

[7] = molecular target: T4, human (Homo sapiens) erythrocyte AChE (HsAChE) (Homo sapiens, UniProt P22303); experiment: Inhibition of HsAChE (spectrophotometric, ATCh iodide substrate); type: biochemical; conditions: mean ± SEM, n = 3; for Inhibition of HsAChE, % inhibition at 20 μM: compound 20 μM, n.a. = not active
T4 construct: human (Homo sapiens) erythrocyte AChE (HsAChE); purchased Sigma-Aldrich; host or cells: human erythrocytes
T4 sequence (P22303 32-617 isoform P22303-2 limits assumed): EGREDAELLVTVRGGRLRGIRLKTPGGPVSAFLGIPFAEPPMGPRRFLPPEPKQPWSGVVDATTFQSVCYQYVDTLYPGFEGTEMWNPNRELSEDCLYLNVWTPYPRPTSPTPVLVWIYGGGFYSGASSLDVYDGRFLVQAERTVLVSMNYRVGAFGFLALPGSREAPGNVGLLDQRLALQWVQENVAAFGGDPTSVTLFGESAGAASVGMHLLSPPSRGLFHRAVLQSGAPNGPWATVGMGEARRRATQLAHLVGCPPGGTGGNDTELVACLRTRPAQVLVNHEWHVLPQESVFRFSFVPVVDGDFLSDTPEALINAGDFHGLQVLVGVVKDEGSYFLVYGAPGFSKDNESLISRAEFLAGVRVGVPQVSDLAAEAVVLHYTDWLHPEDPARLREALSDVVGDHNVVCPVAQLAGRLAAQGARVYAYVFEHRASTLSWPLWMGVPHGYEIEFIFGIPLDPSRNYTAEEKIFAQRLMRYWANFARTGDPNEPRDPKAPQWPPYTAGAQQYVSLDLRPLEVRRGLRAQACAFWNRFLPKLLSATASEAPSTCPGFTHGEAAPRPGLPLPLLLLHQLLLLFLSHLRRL
Method: as §1, §2

SMILES	Exp. FRAP, TE [1]	Exp. ABTS, TEAC [2]	HsAβ42 self-Aggregation Inhibition, (%) [4]	Propidium Displacement, (%) [5]	Ferric Reducing Antioxidant Power, TE [1]	IC50 [2]	ABTS^•+-Scavenging Activity, TEAC [2]	also measured
C=C(C)[c-]1cccc1.[Fe+2].c1ccc(-[c-]2cccc2)[nH+]c1 [5ap]	2.85 ± 1.3	2.20 ± 0.10						
[Fe+2].c1cc[cH-]c1.c1ccc2[nH+]c(-[c-]3cccc3)ccc2c1 [1bp]	2.21 ± 0.01	4.20 ± 0.20						
[Fe+2].c1cc[cH-]c1.c1ccc(-[c-]2cccc2)nc1 [1a]		2.10 ± 0.10	43.4 ± 3.4%	zero	2.05 ± 0.02	10.8 ± 0.6 µM	2.1 ± 0.1	Inhibition of SsCES, % inhibition at 20 μM [3]: 17.5 ± 1.3%; Inhibition of EcBChE, % inhibition at 20 μM [6]: 20.3 ± 1.4%
C=C[c-]1cccc1.[Fe+2].c1ccc(-[c-]2cccc2)[nH+]c1 [7ap]	2.13 ± 0.03	2.60 ± 0.03						
Cc1c(C)c2c(c(C)c1O)CCC(C)(C(=O)O)O2 (stereo not shown) [Trolox, reference compound]					1.0	20.1 ± 1.2 µM	1.0	
C=C(C)[c-]1cccc1.[Fe+2].c1ccc2[nH+]c(-[c-]3cccc3)ccc2c1 [5bp]	3.13 ± 1.7	4.30 ± 0.20						
[Fe+2].c1cc[c-](-c2ccnnc2)c1.c1cc[cH-]c1 [1e, 1-(pyridazin-4-yl)ferrocene]			53.3 ± 3.7%	zero	1.72 ± 0.02	9.2 ± 0.5 µM	2.3 ± 0.1	Inhibition of EcBChE, % inhibition at 20 μM [6]: 13.1 ± 1.4%
C=C(C)[c-]1cccc1.[Fe+2].c1ccc2c(-[c-]3cccc3)c3ccccc3[nH+]c2c1 [5cp]	2.45 ± 0.14	1.35 ± 0.06						
[Fe+2].c1cc[cH-]c1.c1ccc2c(-[c-]3cccc3)c3ccccc3[nH+]c2c1 [1cp]	1.59 ± 0.17	1.50 ± 0.08						
C=C(C)[c-]1cccc1.[Fe+2].c1ccc(-[c-]2cccc2)nc1 [5a]		2.20 ± 0.10	62.4 ± 4.9%	zero	2.85 ± 0.13	9.4 ± 0.5 µM	2.2 ± 0.1	Inhibition of HsAChE, % inhibition at 20 μM [7]: 4.4 ± 1.1%; Inhibition of EcBChE, % inhibition at 20 μM [6]: 18.3 ± 1.6%
O=[N+]([O-])c1ccc(OP(=O)(O)Oc2ccc([N+](=O)[O-])cc2)cc1 [BNPP, bis-4-nitrophenyl phosphate, reference compound]								IC50 ([3]; K/Na-phosphate buffer pH 8.0, 25 °C): 1.8 µM; Inhibition of SsCES, % inhibition at 20 μM [3]: 99.1 ± 0.9%
C=C[c-]1cccc1.[Fe+2].c1ccc(-[c-]2cccc2)nc1 [7a, 1-(Pyridin-2-yl)-1′-Vinylferrocene]		2.60 ± 0.03	84.6 ± 7.5%	9.6 ± 0.7%	2.13 ± 0.03	8.4 ± 0.3 µM	2.60 ± 0.08	IC50 ([7]; K/Na-phosphate buffer pH 7.5, 25 °C): 16.5 ± 1.3 µM; Inhibition of SsCES, % inhibition at 20 μM [3]: 18.5 ± 1.6%; IC50 [6]: 20.1 ± 1.6 µM
[Fe+2].c1cc[cH-]c1.c1ccc(-[c-]2cccc2)[nH+]c1 [1ap]	2.05 ± 0.02	2.10 ± 0.10						
C=C(C)[c-]1cccc1.[Fe+2].c1ccc2c(-[c-]3cccc3)c3ccccc3nc2c1 [5c]			90.1 ± 7.2%	10.5 ± 0.9%	2.45 ± 0.14	15.8 ± 0.8 µM	1.35 ± 0.06	Inhibition of HsAChE, % inhibition at 20 μM [7]: 36.7 ± 3.3%; IC50 [6]: 96.7 ± 6.6 µM
C=C[c-]1cccc1.[Fe+2].c1ccc2c(-[c-]3cccc3)c3ccccc3[nH+]c2c1 [7cp]	1.36 ± 0.01							
C=C[c-]1cccc1.[Fe+2].c1cc[cH-]c1 [compound 9, vinylferrocene, reference compound]	1.04 ± 0.02	1.00 ± 0.04	44.9 ± 3.1%	zero	1.04 ± 0.02	19.4 ± 0.1 µM	1.00 ± 0.04	Inhibition of HsAChE, % inhibition at 20 μM [7]: 4.2 ± 0.9%; Inhibition of SsCES, % inhibition at 20 μM [3]: 23.4 ± 2.1%
[Fe+2].c1cc[cH-]c1.c1ccc2c(-[c-]3cccc3)c3ccccc3nc2c1 [1c]			71.0 ± 4.9%	11.2 ± 0.9%	1.59 ± 0.17	14.6 ± 0.3 µM	1.50 ± 0.08	Inhibition of HsAChE, % inhibition at 20 μM [7]: 6.5 ± 0.8%; Inhibition of EcBChE, % inhibition at 20 μM [6]: 21.2 ± 1.6%
C=C(C)[c-]1cccc1.[Fe+2].c1cc[c-](-c2ccnnc2)c1 [5e, 1-Isopropenyl-1′-(Pyridazin-4-yl)Ferrocene]			48.6 ± 3.5%	zero	2.65 ± 0.02	9.3 ± 0.4 µM	2.5 ± 0.2	
C=C(C)[c-]1cccc1.[Fe+2].c1cc[cH-]c1 [compound 8, isopropenylferrocene, reference compound]	1.10 ± 0.10	0.73 ± 0.04		zero	1.1 ± 0.1	26.3 ± 1.5 µM	0.73 ± 0.04	Inhibition of SsCES, % inhibition at 20 μM [3]: 2.9 ± 0.6%; Inhibition of EcBChE, % inhibition at 20 μM [6]: 3.9 ± 0.8%
C=C[c-]1cccc1.[Fe+2].c1ccc2[nH+]c(-[c-]3cccc3)ccc2c1 [7bp]	2.21 ± 0.02							
